Our source for the IC50 values is US8026257B2 (Bristol-Myers Squibb Company, priority 2007, dated 2011).

The structures appear in SMILES notation.

For test [1], the target named is T1, NK-1 (Homo sapiens, UniProt P25103).
T1 construct: 30 ul/well of a 2×U373 membrane preparation
As to the kind of experiment: NK1 radioligand binding assay ([125I]Substance P, U373 membranes). The note with it: U373 cell membranes, 200 pM [125I]Substance P, 1 hour at room temperature. As to the method: (§1) NK-1 Binding assay. Crude membrane suspensions were prepared for the NK1 and SERT radioligand binding assays from U373 cells or recombinant HEK-293 cells expressing hSERT, respectively. Cells were harvested from T-175 flasks as follows. The medium is removed from the flasks and the cells rinsed with HBSS without Ca and without Mg. The cells are then incubated for 5-10 minutes in 10 mM Tris-Cl, pH 7.5, 5 mM EDTA before the cells are lifted with a combination of pipetting and scraping, as needed. To prepare membranes, the cell suspension is collected into centrifuge bottles and homogenized for 30 seconds with a Polytron homogenizer. The suspension is centrifuged for 30 min@32,000×g, 4° C., then the supernatant is decanted and the pellet resuspended and homogenized in 50 mM Tris-Cl, pH 7.5, 1 mM EDTA for 10 seconds. The suspension is then centrifuged again for 30 min@32,000×g, 4° C. The supernatant is decanted and the pellet resuspended in 50 mM Tris-Cl, pH 7.5, 1 mM EDTA and briefly homogenized. A Bradford assay (Bio-rad) is performed and the membrane preparation diluted to 2 mg/ml with 50 mM Tris-Cl, pH 7.5, 1 mM EDTA. Aliquots are prepared, and then frozen and stored at −80° C.
NK1 radioligand binding assay. Compounds are dissolved in 100% DMSO at a concentration 100× the desired highest assay concentration, serially diluted 1:3 in 100% DMSO, and 0.6 ul/well of each solution is dispensed to a Nunc polypropylene, round bottom, 384 well plate. 100% inhibition is defined with 0.6 ul/well of 1 mM L-733,060 (Sigma L-137) dissolved in DMSO. 30 ul/well of a 2×U373 membrane preparation (267 ug/ml in 100 mM Tris-Cl, pH 7.5, 6 mM MgCl2, 0.2% (v/v) Sigma mammalian protease inhibitor cocktail (Sigma P-8340), and 4 ug/ml chymostatin, Sigma C-7268) and 30 ul/well of a 2× radioligand solution (400 pM [^125I]Substance P (Perkin ElmerNEX-190) in 1% (w/v) BSA (Sigma A-2153), 0.1 mg/ml bacitracin, Sigma B-0125) are added to the well and the reaction incubated for 1 hour at room temperature. The contents of the assay plate are then transferred to a Millipore MultiscreenHTS GF/B filter plate which has been pretreated with 0.5% PEI for at least one hour. The plate is vacuum filtered and washed with 7 washes of 100 ul/well of 20 mM Tris-Cl, pH 7.5, 0.5% (w/v) BSA chilled to 4° C. The filtration and washing is completed in less than 90 s. The plates are air-dried overnight, 12 ul/well of MicroScint scintillation fluid added, and the plates counted in a Trilux.
(§2) Data analysis. The raw data are normalized to percent inhibition using control wells defining 0% (DMSO only) and 100% (selective inhibitor) inhibition which are run on each plate. Each plate is run in triplicate, and the concentration response curve thus generated is fit using the four-parameter dose response equation, Y=Bottom+(Top-Bottom)/(1+10^((LogIC50−X)*HillSlope)) in order to determine the IC50 value for each compound. The radioligand concentration chosen for each assay corresponds to the Kd concentration determined through saturation binding analysis for each assay.

Test [2] has as its target hSERT (Homo sapiens, UniProt P31645). As to the kind of experiment: SERT radioligand binding assay ([125I]RTI-55, HEK-hSERT membranes). The conditions noted are these: HEK-293 hSERT membranes, 260 pM [125I]RTI-55, 1 hour at room temperature; read-out: SERT IC50. The procedure: as §1
SERT radioligand binding assay. Compounds are dissolved in 100% DMSO at a concentration 100× the desired highest assay concentration, serially diluted 1:3 in 100% DMSO, and 0.4 ul/well of each solution is dispensed to a Nunc polypropylene, round bottom, 384 well plate. 100% inhibition is defined with 0.4 ul/well of 1 mM fluoxetine (Sigma F-132) dissolved in DMSO. 20 ul/well of a 2× HEK-hSERT membrane preparation (15 ug/ml in 50 mM Tris-Cl, pH 7.5, 120 mM NaCl, 5mM KCl) and 20 ul/well of a 2× radioligand solution (520 pM [^125I]RTI-55 (Perkin-Elmer NEX-272) in 50 mM Tris-Cl, pH 7.5, 120 mM NaCl, 5mM KCl) are added to each well and the reaction incubated for 1 hour at room temperature. The contents of the assay plate are then transferred to a Millipore MultiscreenHTs GF/B filter plate which has been pretreated with 0.5% PEI for at least one hour. The plate is vacuum filtered and washed with 7 washes of 100 ul/well of 50 mM Tris-Cl, pH 7.5, 120 mM NaCl, 5 mM KCl chilled to 4° C. The filtration and washing is completed in less than 90 s. The plates are air-dried overnight, 12 ul/well of MicroScint scintillation fluid added, and the plates counted in a Trilux.
as §2

Sequence of hSERT (P31645 whole entry): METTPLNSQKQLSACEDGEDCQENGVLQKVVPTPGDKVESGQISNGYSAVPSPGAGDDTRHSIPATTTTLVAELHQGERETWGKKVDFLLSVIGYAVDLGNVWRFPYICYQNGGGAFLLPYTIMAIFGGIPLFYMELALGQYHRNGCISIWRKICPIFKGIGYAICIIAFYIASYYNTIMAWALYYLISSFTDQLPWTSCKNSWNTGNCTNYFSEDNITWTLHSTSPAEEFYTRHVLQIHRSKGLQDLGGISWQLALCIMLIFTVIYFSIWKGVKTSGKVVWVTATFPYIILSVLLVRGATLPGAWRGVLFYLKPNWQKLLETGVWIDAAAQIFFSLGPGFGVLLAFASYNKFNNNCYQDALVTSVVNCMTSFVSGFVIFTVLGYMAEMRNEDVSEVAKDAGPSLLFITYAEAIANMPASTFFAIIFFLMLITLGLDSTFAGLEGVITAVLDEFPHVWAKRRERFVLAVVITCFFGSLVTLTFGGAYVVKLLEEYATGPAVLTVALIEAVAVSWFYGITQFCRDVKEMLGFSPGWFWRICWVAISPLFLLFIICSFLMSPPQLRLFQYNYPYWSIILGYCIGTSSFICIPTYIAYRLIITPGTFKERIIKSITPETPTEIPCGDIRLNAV
T1 sequence (P25103 whole entry): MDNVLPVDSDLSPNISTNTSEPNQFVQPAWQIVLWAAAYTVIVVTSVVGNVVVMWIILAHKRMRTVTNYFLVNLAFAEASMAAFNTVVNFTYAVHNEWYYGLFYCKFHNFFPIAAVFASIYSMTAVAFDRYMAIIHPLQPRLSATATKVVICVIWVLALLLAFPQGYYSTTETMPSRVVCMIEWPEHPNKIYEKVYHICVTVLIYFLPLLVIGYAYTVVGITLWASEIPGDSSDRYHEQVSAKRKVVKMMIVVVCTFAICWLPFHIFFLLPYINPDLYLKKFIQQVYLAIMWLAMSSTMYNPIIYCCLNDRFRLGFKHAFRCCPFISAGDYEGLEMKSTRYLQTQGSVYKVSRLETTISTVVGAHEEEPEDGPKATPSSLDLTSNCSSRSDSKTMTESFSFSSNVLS

The term IC50 denotes the point on the concentration scale where inhibition reaches its midpoint. For the compound `CC(OCC1(c2ccccc2)CCNCC1)c1cc(C(F)(F)F)cc2cn[nH]c12` (racemic) [Example 20, (±)-7-(1-((4-Phenylpiperidin-4-yl)methoxy)ethyl)-5-(trifluoromethyl)-1H-indazole], the 50% inhibitory concentration (IC50) in test [1] and in test [2] was 0.01 to 100 nM in each case.
Consider `CC(OCC1(c2ccccc2)CCN(C)CC1)c1cc(C(F)(F)F)cc2cn[nH]c12` (racemic) [Example 21, (±)-7-(1-((1-Methyl-4-phenylpiperidin-4-yl)methoxy)ethyl)-5-(trifluoromethyl)-1H-indazole], for which the 50% inhibitory concentration (IC50) in test [1] and in test [2] was 0.01 to 100 nM in each case.
As to `CC(OCC1(c2ccccc2)CCNCC1)c1cc(Cl)cc2cn[nH]c12` (racemic) [Example 38, (±)-5-Chloro-7-(1-((4-phenylpiperidin-4-yl)methoxy)ethyl)-1H-indazole], the IC50 in test [1] and in test [2] was 0.01 to 100 nM in each case.
On to `CC(OCC1(c2ccccc2)CCN(C)CC1)c1cc(Cl)cc2cn[nH]c12` (racemic) [Example 39, (±)-5-Chloro-7-(1-((1-methyl-4-phenylpiperidin-4-yl)methoxy)ethyl)-1H-indazole], for which the IC50 in test [1] and in test [2] was 0.01 to 100 nM each time.
Turning to `CC(OCC1(c2ccccc2)CCNCC1)c1cc(Cl)cc2cnn(C)c12` (racemic) [Example 40, (±)-5-Chloro-1-methyl-7-(1-((4-phenylpiperidin-4-yl)methoxy)ethyl)-1H-indazole], the 50% inhibitory concentration (IC50) in test [1] and in test [2] was 0.01 to 100 nM in each case.
On to `CC(OCC1(c2ccccc2)CCN(C)CC1)c1cc(C(F)(F)F)cc2c(C#N)n[nH]c12` (racemic) [Example 42, (±)-7-(1-((1-methyl-4-phenylpiperidin-4-yl)methoxy)ethyl)-5-(trifluoromethyl)-1H-indazole-3-carbonitrile], for which the figures for the IC50 in test [1] and in test [2] were 0.01 to 100 nM and 100 to 300 nM, respectively.
As for `Cc1n[nH]c2c(C(C)OCC3(c4ccccc4)CCNCC3)cc(C(F)(F)F)cc12` (racemic) [Example 43, (±)-3-Methyl-7-(1-((4-phenylpiperidin-4-yl)methoxy)ethyl)-5-(trifluoromethyl)-1H-indazole], the IC50 in test [1] and in test [2] was 0.01 to 100 nM each time.
Regarding `Cc1n[nH]c2c(C(C)OCC3(c4ccccc4)CCN(C)CC3)cc(C(F)(F)F)cc12` (racemic) [Example 44, (±)-3-Methyl-7-(1-((1-methyl-4-phenylpiperidin-4-yl)methoxy)ethyl)-5-(trifluoromethyl)-1H-indazole], the half-inhibitory concentration (IC50) in test [1] and in test [2] was 0.01 to 100 nM in each case.
For `CC(OCC1(c2ccc(F)cc2)CCN(C)CC1)c1cc(Br)cc2cn[nH]c12` (racemic) [Example 46, (±)-5-Bromo-7-(1-((4-(4-fluorophenyl)-1-methylpiperidin-4-yl)methoxy)ethyl)-1H-indazole], the concentration for half-maximal inhibition (IC50) in test [1] and in test [2] was 0.01 to 100 nM each time.
In the case of `CC(OCC1(c2ccc(F)cc2)CCN(C)CC1)c1cc(C2CC2)cc2cn[nH]c12` (racemic) [Example 47, (±)-5-Cyclopropyl-7-(1-((4-(4-fluorophenyl)-1-methylpiperidin-4-yl)methoxy)ethyl)-1H-indazole], the 50% inhibitory concentration (IC50) in test [1] and in test [2] was 0.01 to 100 nM throughout.
With `CC(OCC1(c2ccc(F)cc2)CCN(C)CC1)c1cc(C#N)cc2cn[nH]c12` (racemic) [Example 48, (±)-7-(1-((4-(4-Fluorophenyl)-1-methylpiperidin-4-yl)methoxy)ethyl)-1H-indazole-5-carbonitrile], the IC50 in test [1] and in test [2] was 0.01 to 100 nM each time.
Take `Cc1cc(C(C)OCC2(c3ccc(F)cc3)CCN(C)CC2)c2[nH]ncc2c1` (racemic) [Example 49, (±)-7-(1-((4-(4-Fluorophenyl)-1-methylpiperidin-4-yl)methoxy)ethyl)-5-methyl-1H-indazole]: the IC50 in test [1] and in test [2] was 0.01 to 100 nM in each case.
For `CC(OCC1(c2ccc(F)cc2)CCN(C)CC1)c1cc(N2CCOCC2)cc2cn[nH]c12` (racemic) [Example 50, (±)-4-7-(1-((4-(4-Fluorophenyl)-1-methylpiperidin-4-yl)methoxy)ethyl)-1H-indazole-5-yl)morpholino], the IC50 in test [1] lay within 100 to 300 nM; in test [2], 0.01 to 100 nM.
As to `COc1cc(C(C)OCC2(c3ccc(F)cc3)CCN(C)CC2)c2[nH]ncc2c1` (racemic) [Example 52, (±)-7-(1-((4-(4-Fluorophenyl)-1-methylpiperidin-4-yl)methoxy)ethyl)-5-methoxy-1H-indazole], the IC50 in test [1] and in test [2] was 0.01 to 100 nM in each case.
With `CC(OCC1(c2ccc(F)cc2)CCN(C)CC1)c1cc(F)cc2cn[nH]c12` (racemic) [Example 53, (±)-5-Fluoro-7-(1-((4-(4-fluorophenyl)-1-methylpiperidin-4-yl)methoxy)ethyl)-1H-indazole], the IC50 in test [1] and in test [2] was 0.01 to 100 nM throughout.
Consider `Cc1n[nH]c2c(C(C)OCC3(c4ccc(F)cc4)CCN(C)CC3)cc(Cl)cc12` (racemic) [Example 55, (±)-5-Chloro-7-(1-((4-(4-fluorophenyl)-1-methylpiperidin-4-yl)methoxy)ethyl)-3-methyl-1H-indazole], for which the half-inhibitory concentration (IC50) in test [1] and in test [2] was 0.01 to 100 nM throughout.
As for `CC(OCC1(c2ccc(F)cc2)CCN(C)CC1)c1cc(Cl)cc2c(C3CC3)n[nH]c12` (racemic) [Example 56, (±)-5-Chloro-3-cyclopropyl-7-(1-((4-(4-fluorophenyl)-1-methylpiperidin-4-yl)methoxy)ethyl)-1H-indazole], the IC50 in test [1] and in test [2] was 0.01 to 100 nM throughout.
`CC(OCC1(c2ccc(F)cc2)CCN(C)CC1)c1cc(Cl)cc2c(Br)n[nH]c12` (racemic) [Example 57, (±)-3-Bromo-5-chloro-7-(1-((4-(4-fluorophenyl)-1-methylpiperidin-4-yl)methoxy)ethyl)-1H-indazole]: the half-inhibitory concentration (IC50) in test [1] and in test [2] was 0.01 to 100 nM in each case.
As for `CC(OCC1(c2ccc(F)cc2)CCN(C)CC1)c1cc(Cl)cc2cn(C3CC3)nc12` (racemic) [Example 58, (±)-5-Chloro-2-cyclopropyl-7-(1-((4-(4-fluorophenyl)-1-methylpiperidin-4-yl)methoxy)ethyl)-2H-indazole], the IC50 in test [1] and in test [2] was 0.01 to 100 nM throughout.
`CC(OCC1(c2ccc(F)cc2)CCN(C)CC1)c1cc(Cl)cc2c(Cl)n[nH]c12` (racemic) [Example 59, (±)-3,5-Dichloro-7-(1-((4-(4-fluorophenyl)-1-methylpiperidin-4-yl)methoxy)ethyl)-1H-indazole]: the IC50 in test [1] and in test [2] was 0.01 to 100 nM throughout.
In the case of `C[C@@H](OCC1(c2ccc(F)cc2)CCN(C)CC1)c1cc(Cl)cc2c(Cl)n(CC(F)(F)F)nc12` [Example 117, (R)-3,5-dichloro-7-(1-((4-(4-fluorophenyl-1-methyl)piperidine-4-yl)methoxy)ethyl)-2-(2,2,2-trifluoroethyl)-1H-indazole], the 50% inhibitory concentration (IC50) in test [1] is 0.01 to 100 nM.
